A word on the IC50: it is the concentration at which inhibition is half-maximal.

Like-named read-outs stand apart in the source and are kept apart here.

Test [1] concerns the target T1, cholecystokinin receptors of ox gallbladder membranes (Bos taurus, UniProt A6QLH2).
T1 construct: The ox gallbladder cell membranes were homogenised with Tris buffer (pH 7.4); from tissue; host or cells: ox gallbladder cell membranes
T1 sequence (A6QLH2 1-427): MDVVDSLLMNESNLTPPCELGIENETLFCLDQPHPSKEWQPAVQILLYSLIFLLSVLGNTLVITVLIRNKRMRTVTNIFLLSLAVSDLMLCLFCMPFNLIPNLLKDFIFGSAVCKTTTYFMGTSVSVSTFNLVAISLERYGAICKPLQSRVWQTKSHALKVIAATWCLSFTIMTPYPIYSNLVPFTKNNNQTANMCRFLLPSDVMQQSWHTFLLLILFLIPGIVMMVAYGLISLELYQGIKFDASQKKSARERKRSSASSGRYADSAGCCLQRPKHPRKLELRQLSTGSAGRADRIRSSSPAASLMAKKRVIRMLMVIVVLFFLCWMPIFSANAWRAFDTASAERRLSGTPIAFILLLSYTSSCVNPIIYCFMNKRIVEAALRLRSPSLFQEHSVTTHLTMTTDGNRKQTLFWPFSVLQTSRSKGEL
The test is described as follows: Inhibition of the binding of [125-I]-Bolton Hunter-CCK-8 to ox gallbladder membranes. The settings on record: pH 7.4, 2 h at 25° C., read-out: IC50, inhibition of the binding of (^125 I)-(B-H)-CCK-8. As to the method: The ox gallbladder cell membranes were homogenised with Tris buffer (pH 7.4) and the homogenate was centrifuged at 50,000 gravity for 10 minutes. The membranes were then incubated with a radioactive tracer and the compounds under study for 2 h at 25° C.
After the supernatant liquid had been discarded, the radioactivity associated with the pellet was determined with a liquid scintillator. The specific binding was determined as the difference between the binding in the absence and in the presence of 10^-6 M CCK-8.

Test [2] deals with experimental pancreatitis induced by taurocholate. The experiment in a line: Pancreatitis induced by sodium taurocholate. The format is in vivo, rats. The settings on record: for ED50: Rattus norvegicus, ip, 6 h. As to the method: The method described by Aho et al. (Scandinavian J. Gastroenterology 15 (1980), 411-16) was followed
Male rats weighing approximately 250 g were subjected to laparatomy and the pancreas exposed. 0.3 ml of a 6% solution of sodium taurocholate was injected directly into the pancreatic tissue.
The products under test were administered intraperitoneally (i.p.) 30 minutes before the operation and 3 hours after the operation. 6 hours after the laparotomy and after anesthesia with ether, blood was removed from the retro-orbital plexus, the animals were killed and the pancreas removed and weighed. The activity of the serum amylase was determined by the Ceska method (Clin. Chim. Acta 26 (1969), 437-444).
The compounds were tested at different doses so as to enable the calculation of the ID50 value, that is the dose (in mg/kg i.p.) which is able to inhibit the toxic effect of the sodium taurocholate by 50%, expressed both as a % inhibition of the increase in weight of the pancreas and as a % inhibition of the increase in serum amylase.

Test [3] concerns gallbladder contraction induced by egg yolk. The test is described as follows: Antispastic activity on the gallbladder in mice (gallbladder emptying induced by egg yolk). The format is in vivo. Particulars: for ED50: Mus musculus, ip, read-out: ID50, antispastic activity on gallbladder contraction induced by egg yolk. As to the method: The emptying of the gallbladder was induced by a single oral administration of 1 ml of a 30% suspension (weight/volume) of lyophilised egg yolk in a physiological solution.
Once it has been absorbed, the egg yolk, as stated above, induces the release of endogenous CCK.
The antagonist compounds were administered intraperitoneally (i.p.) 15 minutes before the contractant.
The % antispastic activity for each dose was calculated by the following formula: [formula] where P1 =average weight of the gallbladders of the group of animals treated with the drug plus the contractant
P2 =average weight of the gallbladders of the group of animals treated with contractant only
P3 =average weight of the gallbladders of the control group of animals.

Test [4] concerns piloric contraction induced by CCK. The test is described as follows: Antispastic activity on piloric contraction induced by CCK in rats. The format is in vivo, rat. Particulars: for ED50: ip, rat, 8 mcg/kg i.p. CCK, compound i.p. 15 minutes before, read-out: ID50, antispastic activity on piloric contraction induced by CCK. The protocol: A dose of 8 mcg/kg i.p. of CCK was used, which induces a sub-maximal contraction of the pilorus.
The antagonistic compounds were administered (i.p.) 15 minutes before the contractant. 10 minutes after the administration of the contractant, the animals were treated per os with 25 ml/kg of H2 O. 5 minutes after this administration, the animals were killed, their stomachs removed and the gastric content measured by removal with a syringe.
The % antispactic activity for each dose administered was calculated from the following formula: [formula] where V1 =the gastric-content volume of the group of animals treated with the drug plus the contractant
V2 =the gastric-content volume of the group of animals treated with the contractant only
V3 =the gastric-content volume of the control group of animals.
The compounds were tested at various doses so as to enable the calculation of the ID50 value, that is the dose (in mg/kg i.p.) which is able to inhibit the contractant effect of CCK by 50%.
The results obtained are given in Table 7, where the effects obtained are expressed as the ID50.

Setting [5] is: 30 min before and 3 h after operation, read-out: ID50, inhibition of the increase in serum amylase.
[6] abbreviates: 30 min before and 3 h after operation, read-out: ID50, inhibition of the increase in weight of the pancreas.
Where [7] appears, read: mice, i.p. 15 minutes before egg yolk.
Where [8] appears, read: 5 mg/kg i.p. (second dose of compound 8) + taurocholate.
[9] abbreviates: 5 mg/kg i.p. (third dose of compound 8) + taurocholate.

Turning to `CCCCCN(CCCOC)C(=O)[C@H](CCC(=O)O)NC(=O)c1ccc2ccccc2c1` [Compound 16], the IC50 in test [1] worked out at 560 nM.

With `CCCCCN(CCCCC)C(=O)[C@H](CCC(=O)O)NC(=O)c1ccc(Cl)c(Cl)c1` [Compound 14], in test [1], the IC50 came to 450 nM.

Take `CCCCCN(CCCCC)C(=O)[C@@H](CCC(=O)O)NC(=O)c1ccc2ccccc2c1` [Compound 7]: the “% inhibition increase in amylase” value in test [2] (0.3 mg/kg i.p. + taurocholate) is given as 42.2%; in test [2] (1 mg/kg i.p. + taurocholate), 79.7%; in test [2] (3 mg/kg i.p. + taurocholate), 89.0%. For the same compound, the “% inhibition of weight increase (pancreas)” value in test [2] (0.3 mg/kg i.p. + taurocholate) is given as 36.4%; in test [2] (1 mg/kg i.p. + taurocholate), 54.5%; in test [2] (3 mg/kg i.p. + taurocholate), 90.8%. The “% ratio pancreas weight / animal weight” value in test [2] (0.3 mg/kg i.p. + taurocholate) was found to be 0.47%; in test [2] (1 mg/kg i.p. + taurocholate), 0.45%; in test [2] (3 mg/kg i.p. + taurocholate), 0.41%. The “Amylase in the serum” value in test [2] (0.3 mg/kg i.p. + taurocholate) was 12.0 U/ml; in test [2] (1 mg/kg i.p. + taurocholate), 9.6 U/ml; in test [2] (3 mg/kg i.p. + taurocholate), 9.0 U/ml. In addition, the ED50 is approximately 0.5 mg/kg in test [2] (both parameters, read-out: dose inhibiting the increase in weight of the pancreas and the increase in serum amylase by 50%); 0.4 mg/kg in test [2] (setting [5]); 0.6 mg/kg in test [2] (setting [6]); 0.05 mg/kg in test [3] (setting [7]); 0.03 mg/kg in test [4]. Also, the “% inhibition of the emptying of the gallbladder” value came to 24.0% in test [3] (0.025 mg/kg i.p.) and 44.2% in test [3] (0.05 mg/kg i.p.). Besides, the IC50 in test [1] is 1 nM. Further, the figures for the “% inhibition of piloric contraction” value in test [4] (0.01 mg/kg i.p.), in test [4] (0.03 mg/kg i.p.) and in test [4] (0.1 mg/kg i.p.) were 27.7%, 48.8% and 80.8%, respectively.

For `CCCCCN(CCOCC)C(=O)[C@@H](CCC(=O)O)NC(=O)c1ccc2ccccc2c1` [Compound 12], the IC50 in test [1] came to 9.3 nM.

For `CCCCCN(CCCCC)C(=O)[C@@H](CCC(=O)O)NC(=O)c1ccc(Cl)c(Cl)c1` [Compound 8], the “% inhibition increase in amylase” value in test [2] (1 mg/kg i.p. + taurocholate) came to 40.7%; in test [2] (setting [8]), 76.5%; in test [2] (setting [9]), 86.4%. Further, the “% inhibition of weight increase (pancreas)” value in test [2] (1 mg/kg i.p. + taurocholate) worked out at 35.3%; in test [2] (setting [8]), 52.5%; in test [2] (setting [9]), 82.3%. Moreover, the “% ratio pancreas weight / animal weight” value in test [2] (1 mg/kg i.p. + taurocholate) worked out at 0.48%; in test [2] (setting [8]) it was 0.45%; in test [2] (setting [9]) it was 0.40%. In addition, the “Amylase in the serum” value is recorded as 12.7 U/ml in test [2] (1 mg/kg i.p. + taurocholate), 9.8 U/ml in test [2] (setting [8]) and 9.0 U/ml in test [2] (setting [9]). In addition, the ED50 in test [2] (setting [5]) was determined as 1.2 mg/kg; in test [2] (setting [6]) it was 1.8 mg/kg; in test [3] (setting [7]), 0.25 mg/kg; in test [4], 0.11 mg/kg. For the same compound, the “% inhibition of the emptying of the gallbladder” value in test [3] (0.1 mg/kg i.p.) was 25.2%; in test [3] (0.1 mg/kg i.p. as printed (third, highest dose of compound 8)), 86.3%; in test [3] (0.3 mg/kg i.p.) it was 53.2%. Besides, in test [1], the IC50 was determined as 7.5 nM. Besides, the figures for the “% inhibition of piloric contraction” value in test [4] (0.03 mg/kg i.p.), in test [4] (0.1 mg/kg i.p.) and in test [4] (0.3 mg/kg i.p.) were 29.8%, 48.0% and 68.1%, respectively.

Take `CCCCCN(CCCCC)C(=O)[C@H](CCC(=O)O)NC(=O)c1ccc2ccccc2c1` [Compound 13]: the “% inhibition of the emptying of the gallbladder” value in test [3] (1 mg/kg i.p.) was 18.8%; in test [3] (3 mg/kg i.p.), 47.7%; in test [3] (9 mg/kg i.p.), 80.2%. The ED50 in test [3] (setting [7]) stood at 3.2 mg/kg; in test [4] it was 4.55 mg/kg. In test [1], the IC50 was 61 nM. Also, the results for the “% inhibition of piloric contraction” value in test [4] (1 mg/kg i.p.), in test [4] (3 mg/kg i.p.) and in test [4] (5 mg/kg i.p.) were 17.7%, 39.0% and 54.2%, respectively. For the same compound, in test [4] (piloric contraction), the “active dose, times higher than compound 7” value is listed as “approximately 150 times”.

`CCCCCN(CCCOC)C(=O)[C@@H](CCC(=O)O)NC(=O)c1ccc2ccccc2c1` [Compound 10]: in test [1], the IC50 was 6.2 nM.

With “CCK-8: cold (unmarked) CCK [reference compound]”, the IC50 in test [1] is 0.2 nM.

Take `CCCCCN(CCCOC)C(=O)[C@@H](CCC(=O)O)NC(=O)c1ccc(Cl)c(Cl)c1` [Compound 11]: the half-maximal inhibitory concentration (IC50) in test [1] was 30 nM.

In the case of `CCCCCN(CCCCC)C(=O)[C@@H](CCC(=O)O)NC(=O)c1ccc(C)c(C)c1` [Compound 9], in test [1], the IC50 turned out to be 44 nM.

In the case of `COc1ccc(Cc2nccc3cc(OC)c(OC)cc23)cc1OC` [PAPAVERINE, reference compound], the “% inhibition of the emptying of the gallbladder” value amounted to 0% in test [3] (25 mg/kg i.p.), 0% in test [3] (50 mg/kg i.p.) and 26.1% in test [3] (75 mg/kg i.p.). For the same compound, the “ID50, antispastic activity on gallbladder contraction induced by egg yolk” value in test [3] (setting [7]) is “INACTIVE”. The “antispastic activity on the gallbladder, in words” value in test [3] (only at 75 mg/kg) was “slightly active”.

With `CCCCCN(CCCCC)C(=O)[C@H](CCC(=O)O)NC(=O)c1ccc(C)c(C)c1` [Compound 15], the IC50 in test [1] is 2200 nM.

The values above are taken from patent publication US5130474A, “Optically-active derivatives of (R) 5-pentylamino-5-oxopentanoic acid with antagonistic activity towards cholecystokin in and a method for their preparation” (Rotta Research Laboratorium SpA, priority 1987, dated 1992).
